Reference: patent publication US4588718A, “Carboxy containing ester prodrugs of corticosteroids” (The Upjohn Company, priority 1984, dated 1986)

What was measured:
[1] = Bioconversion to the parent steroid in vivo (blood levels of test compound and parent steroid); conditions: four female monkeys, dose equivalent to 7.5 mg/kg, injection, blood samples 0 to 8 hours; compared with methylprednisolone hemisuccinate
Protocol: Since the compounds of Formula I are prodrugs of the parent corticosteroids, their efficacy depends on bioconversion to liberate the free corticoid in vivo. […] Four female monkeys having synchronized menstrual cycles were given on separate days three days apart doses of the compound of Examples 1 and 2 and methylprednisolone hemisuccinate equivalent to 7.5 mg/kg. Prior to dosing the monkeys were fasted overnight and each was anesthetized during dosing. A few mls of 0.01μ ion strength pH 5 sodium acetate buffer was added to the test compound and 1N sodium hydroxide was added slowly with rapid stirring until all the solids went into solution just prior to injection. Blood samples were withdrawn at times 0, 1/12, 1/4, 1, 2, 4 and 8 hours from administration of test compound and levels of test compound and parent steroid were measured.

[2] = type: physicochemical; conditions: for t 90% (time for 10% hydrolysis): 25° C., dilute aqueous solution, at the pH of optimum stability (Example 1: pH 4.7; Example 2: pH 4.6)
Protocol: The most important reaction affecting shelf-life is hydrolysis of the ester or carbonate linkage. From the hydrolysis rate constants determined at 25° C. at various pH values for dilute aqueous solutions of the compounds of this invention, estimates of ^t 90% (time for 10% hydrolysis) may be calculated. Such values, calculated at the pH of optimum stability, for the compounds of Examples 1 and 2 are listed in Table I. The actual shelf-life of formulations of the above compounds would be expected to differ from the above estimates for several reasons. (1) The solubility of the parent corticosteroid formed on hydrolysis may be exceeded prior to 10% degradation of the ester. Micelle formation by the intact prodrugs results in solubilization of free corticosteroid thereby prolonging shelf-life. The degree of solubilization varies with the ester concentration, nature of the pro-moiety, and the structure of the corticosteroid. (2) Other degradation reactions besides hydrolysis may be expected to occur. These should in general be diminished due to micelle formation and can in some cases be controlled by the addition of chelating agents, antioxidants, etc. (3) Micelle formation in concentrated solutions also results in stabilization of the ester linkage toward base catalyzed hydrolysis. For example, the base catalyzed hydrolysis rate constant in a 0.267M solution of the compound of Example 1 is less than 20% the rate constant in a 5×10^-4 M solution.

physchem = type: physicochemical; conditions: water, pH 4.8, water
Description: The compounds of this invention tend to be free flowing non-hygroscopic crystalline solids when in the acid form. While the aqueous solubility of these prodrugs is limited at very low pH values, these compounds become very soluble at pH values around 5 or higher. In this pH range the prodrugs self-associate to form micellar solutions.

C[C@H]1C[C@@H]2[C@H]([C@@H](O)C[C@@]3(C)[C@H]2CC[C@]3(O)C(=O)COC(=O)CCCCCS(=O)(=O)CC(=O)O)[C@@]2(C)C=CC(=O)C=C12 [Example 1, methylprednisolone, 21-[6'-(carboxymethylsulfonyl)hexanoate]]
conversion to the parent steroid (methylprednisolone) in vivo [1]: to at least the same extent as was methylprednisolone hemisuccinate | pH of optimum stability [2]: 4.7 | base catalyzed hydrolysis rate constant in a 0.267M solution relative to the rate constant in a 5×10^-4 M solution ([2]; 0.267M vs 5×10^-4 M solution): less than 20% | t 90% (time for 10% hydrolysis) [2]: 2.0 years | solubility (physchem): > 160 mg/mL

C[C@H]1C[C@@H]2[C@H]([C@@H](O)C[C@@]3(C)[C@H]2CC[C@]3(O)C(=O)COC(=O)CCCCC[S+]([O-])CC(=O)O)[C@@]2(C)C=CC(=O)C=C12 (some centres unmarked) [Example 2, methylprednisolone-21-[6'-(carboxymethylsulfinyl)hexanoate]]
conversion to the parent steroid (methylprednisolone) in vivo [1]: to at least the same extent as was methylprednisolone hemisuccinate | pH of optimum stability [2]: 4.6 | t 90% (time for 10% hydrolysis) [2]: 0.93 years
